Reference: patent US8455534B2, “Estrogen receptor modulators and uses thereof” (Aragon Pharmaceuticals, Inc., priority 2010, dated 2013)

Experiments:
MCF-7 cells = experiment: Breast Cancer Cell Viability Assay (MCF-7, CellTiter-Glo); format: cell-based; conditions: 5 days' compound exposure; for IC50: Homo sapiens, MCF7, 120 h
Method: MCF-7 cells were adjusted to a concentration of 20,000 cells per mL in RPMI containing 10% FBS and 20 mM HEPES. 16 microliters of the cell suspension (320 cells) was added to each well of a 384 well plate, and the cells were incubated overnight to allow the cells to adhere. The following day an eleven point, serial semilog dilution of each compound was added to the cells in 16 μL at a final concentration ranging from 0.3-0.000003 μM. After 5 days' compound exposure, 16 μL of CellTiter-GLo (Promega, Madison Wis.) was added to the cells the relative luminescence units (RLUs) of each well was determined CellTiter-Glo added to 32 μL of medium without cells was used to obtain a background value. The Percent viability of each sample was determined as follows: (RLU sample-RLU background/RLU untreated cells-RLU background)×100=% viability.

ER-α = biological target: T1, ER-α (Homo sapiens, UniProt P03372); experiment: Breast Cancer Cell ER-α In Cell Western Assay (SP1); format: cell-based; conditions: MCF-7 cells, SP1 antibody, 4 or 24 hr post compound addition; for Emax: MCF7, read-out: ER-α In Cell Western Assay (SP1) Max Response; for DC50: read-out: ER-α In Cell Western Assay (SP1) IC50
T1 sequence (P03372 1-595): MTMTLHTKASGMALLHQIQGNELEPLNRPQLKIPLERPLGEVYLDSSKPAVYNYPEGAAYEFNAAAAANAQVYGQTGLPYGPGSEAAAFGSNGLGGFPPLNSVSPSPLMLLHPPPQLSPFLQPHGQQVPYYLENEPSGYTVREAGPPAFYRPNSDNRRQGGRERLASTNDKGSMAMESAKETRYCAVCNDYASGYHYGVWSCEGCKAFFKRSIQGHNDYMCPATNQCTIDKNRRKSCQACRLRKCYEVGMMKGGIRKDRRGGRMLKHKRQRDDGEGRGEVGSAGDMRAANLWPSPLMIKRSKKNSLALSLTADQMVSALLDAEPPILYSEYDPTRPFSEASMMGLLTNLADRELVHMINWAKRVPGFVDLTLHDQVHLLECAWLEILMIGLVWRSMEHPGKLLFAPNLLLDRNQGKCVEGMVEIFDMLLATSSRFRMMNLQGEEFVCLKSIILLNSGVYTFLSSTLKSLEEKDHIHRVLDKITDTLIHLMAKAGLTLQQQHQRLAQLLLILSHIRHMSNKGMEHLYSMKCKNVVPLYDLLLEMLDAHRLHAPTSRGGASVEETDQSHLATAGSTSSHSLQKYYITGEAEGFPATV
Method: MCF-7 cells were adjusted to a concentration of 200,000 cells per mL in RPMI containing 10% charcoal-stripped FBS and 20 mM HEPES. 16 microliters of the cell suspension (3200 cells) was added to each well of a poly-D-lysine 384 well plate, and the cells were incubated overnight to allow the cells to adhere. The following day an eleven point, serial semilog dilution of each compound was added to the cells in 16 μL at a final concentration ranging from 0.3-0.000003 μM. At 4 or 24 hr post compound addition, the cells were fixed (10% formalin in PBS) for 20 minutes. Cells were permeablized in PBS 0.1% Triton and blocked with LICOR blocking buffer (50 μL1/well, 90′). The wells were then incubated overnight at 4° C. with SP1 rabbit monoclonal Ab (Thermo Scientific) diluted 1:1000 in LICOR blocking buffer/0.1% Tween-20. Wells which were treated with blocking buffer with Tween but no antibody were used as a background control. Wells were washed with 0.1% Tween-20/PBS and then incubated in goat anti-rabbit IRDye™ 800CW (LICOR Inc.; 1:1000) and DRAQ5 DNA dye (1:2000 for 2 mM stock) diluted in LICOR blocking buffer containing 0.1% Tween-20 and 0.01% SDS for 60 minutes. Cells were washed (50 μl/well, 5′ each) in 0.1% Tween-20/PBS. Plates were scanned on a LICOR Odyssey infrared imaging system. Integrated intensities in the 800 nm channel and 700 nm channel were measured to determine levels of ER and DNA respectively. Percent ER levels were determined as follows: (Integrated intensity 800 nm sample/integrated intensity 700 nm sample)/(Integrated intensity 800 nm untreated cells/integrated intensity 700 nm untreated cells)×100=% ER levels.

IC50 (MCF-7 cells) [µM] | Emax (ER-α) [%] | DC50 (ER-α) [µM] | Compound | MCF7 Viability Assay Max Response (MCF-7 cells)
> 0.1 | ≥ 40 | > 0.1 | CC/C(=C(/c1ccc(/C=C/C(=O)O)cc1)c1ccc2[nH]nc(C)c2c1)c1ccccc1 [Compound 39, (E)-3-(4-((E)-1-(3-Methyl-1H-indazol-5-yl)-2-phenylbut-1-en-1-yl)phenyl)acrylic acid] | ++ (++ = a single % value ≧ 40%)
> 0.1 | ≥ 40 | ≤ 0.1 | COCCC/C(=C(/c1ccc(/C=C/C(=O)O)cc1)c1ccc2[nH]ncc2c1)c1ccccc1 [Compound 80, (E)-3-(4-((E)-1-(1H-Indazol-5-yl)-5-methoxy-2-phenylpent-1-en-1-yl)phenyl)acrylic acid] | ++ (++ = a single % value ≧ 40%)
≤ 0.1 | ≥ 40 | ≤ 0.1 | O=C(O)/C=C/c1ccc(/C(=C(\c2ccccc2Cl)C2CC2)c2ccc3[nH]ncc3c2)cc1 [Compound 57, (E)-3-(4-((E)-2-(2-Chlorophenyl)-2-cyclopropyl-1-(1H-indazol-5-yl)vinyl)phenyl)acrylic acid] | ++ (++ = a single % value ≧ 40%)
≤ 0.1 | ≥ 40 | ≤ 0.1 | CC/C(=C(/c1ccc(/C=C/C(=O)O)cc1)c1ccc2[nH]ncc2c1)c1ccc(Cl)cc1C [Compound 41, (E)-3-(4-((E)-2-(4-Chloro-2-methylphenyl)-1-(1H-indazol-5-yl)but-1-en-1-yl)phenyl)acrylic acid] | ++ (++ = a single % value ≧ 40%)
> 0.1 | ≥ 40 | ≤ 0.1 | COCCCC/C(=C(/c1ccc(/C=C/C(=O)O)cc1)c1ccc2[nH]ncc2c1)c1ccccc1 [Compound 81, (E)-3-(4-((E)-1-(1H-Indazol-5-yl)-6-methoxy-2-phenylhex-1-en-1-yl)phenyl)acrylic acid] | ++ (++ = a single % value ≧ 40%)
≤ 0.1 | ≥ 40 | ≤ 0.1 | CC/C(=C(/c1ccc(/C=C/C(=O)O)c(Cl)c1)c1ccc2[nH]ncc2c1)c1ccccc1 [Compound 102, (E)-3-(4-((Z)-1-(1H-Indazol-5-yl)-2-phenylbut-1-en-1-yl)-2-chlorophenyl)acrylic acid] | ++ (++ = a single % value ≧ 40%)
≤ 0.1 | ≥ 40 | ≤ 0.1 | CCOC(=O)/C=C/c1ccc(/C(=C(/CC)c2ccccc2)c2ccc3[nH]ncc3c2)cc1 [Compound 1, (E)-Ethyl 3-(4-((E)-1-(1H-indazol-5-yl)-2-phenylbut-1-en-1-yl)phenyl)acrylate] | + (+ = a single % value < 40%)
≤ 0.1 | ≥ 40 | ≤ 0.1 | O=C(O)/C=C/c1ccc(/C(=C(/CC2CC2)c2ccccc2)c2ccc3[nH]ncc3c2)cc1 [Compound 56, (E)-3-(4-((E)-3-Cyclopropyl-1-(1H-indazol-5-yl)-2-phenylprop-1-en-1-yl)phenyl)acrylic acid] | ++ (++ = a single % value ≧ 40%)
> 0.1 | ≥ 40 | ≤ 0.1 | CC/C(=C(/c1ccc(/C=C(\Cl)C(=O)O)cc1)c1ccc2[nH]ncc2c1)c1ccccc1 [Compound 104, (Z)-3-(4-((E)-1-(1H-Indazol-5-yl)-2-phenylbut-1-en-1-yl)phenyl)-2-chloroacrylic acid] | ++ (++ = a single % value ≧ 40%)
≤ 0.1 | ≥ 40 | ≤ 0.1 | CC/C(=C(/c1ccc(/C=C/C(=O)O)cc1)c1ccc2[nH]ncc2c1)c1c(F)cccc1F [Compound 26, (E)-3-(4-((E)-2-(2,6-Difluorophenyl)-1-(1H-indazol-5-yl)but-1-en-1-yl)phenyl)acrylic acid] | ++ (++ = a single % value ≧ 40%)
≤ 0.1 | ≥ 40 | ≤ 0.1 | CC(C)/C(=C(/c1ccc(/C=C/C(=O)O)cc1)c1ccc2[nH]ncc2c1)c1ccc(F)cc1Cl [Compound 82, (E)-3-(4-((E)-2-(2-Chloro-4-fluorophenyl)-1-(1H-indazol-5-yl)-3-methylbut-1-en-1-yl)phenyl)acrylic acid] | ++ (++ = a single % value ≧ 40%)
≤ 0.1 | ≥ 40 | ≤ 0.1 | CC/C(=C(/c1ccc(/C=C/C(=O)O)cc1)c1ccc2[nH]ncc2c1F)c1ccc(Cl)cc1C(F)(F)F [Compound 119, (E)-3-(4-((E)-2-(4-Chloro-2-(trifluoromethyl)phenyl)-1-(4-fluoro-1H-indazol-5-yl)but-1-en-1-yl)phenyl)acrylic acid] | ++ (++ = a single % value ≧ 40%)
≤ 0.1 | ≥ 40 | ≤ 0.1 | CC/C(=C(/c1ccc(/C=C/C(=O)O)cc1)c1ccc2[nH]ncc2c1)c1cccc(OC(F)(F)F)c1 [Compound 83, (E)-3-(4-((E)-1-(1H-Indazol-5-yl)-2-(3-(trifluoromethoxy)phenyl)but-1-en-1-yl)phenyl)acrylic acid] | ++ (++ = a single % value ≧ 40%)
≤ 0.1 | ≥ 40 |  | CC/C(=C(/c1ccc(/C=C/C(=O)O)cc1)c1ccc2[nH]ncc2c1)c1cccc(Cl)c1 [Compound 15, (E)-3-(4-((E)-2-(3-Chlorophenyl)-1-(1H-indazol-5-yl)but-1-en-1-yl)phenyl)acrylic acid] | ++ (++ = a single % value ≧ 40%)
≤ 0.1 | ≥ 40 | ≤ 0.1 | CCOC(=O)/C=C/c1ccc(/C(=C(/CC)c2ccc(F)cc2)c2ccc3[nH]ncc3c2)cc1 [Compound 90, (E)-Ethyl 3-(4-((E)-2-(4-fluorophenyl)-1-(1H-indazol-5-yl)but-1-en-1-yl)phenyl)acrylate] | + (+ = a single % value < 40%)
≤ 0.1 | ≥ 40 | ≤ 0.1 | O=C(O)/C=C/c1ccc(/C(=C(\c2ccccc2)C(F)(F)F)c2ccc3[nH]ncc3c2)cc1 [Compound 68, (E)-3-(4-((Z)-3,3,3-Trifluoro-1-(1H-indazol-5-yl)-2-phenylprop-1-en-1-yl)phenyl)acrylic acid] | ++ (++ = a single % value ≧ 40%)
≤ 0.1 | ≥ 40 | ≤ 0.1 | O=C(O)/C=C/c1ccc(/C(=C(\c2ccc(F)cc2Cl)C2CC2)c2ccc3[nH]ncc3c2)cc1 [Compound 115, (E)-3-(4-((E)-2-(2-Chloro-4-fluorophenyl)-2-cyclopropyl-1-(1H-indazol-5-yl)vinyl)phenyl)acrylic acid] | ++ (++ = a single % value ≧ 40%)
≤ 0.1 | ≥ 40 | ≤ 0.1 | CC/C(=C(/c1ccc(/C=C/C(=O)O)cc1)c1ccc2[nH]ncc2c1F)c1ccc(F)cc1C [Compound 69, (E)-3-(4-((E)-1-(4-Fluoro-1H-indazol-5-yl)-2-(4-fluoro-2-methylphenyl)but-1-en-1-yl)phenyl)acrylic acid] | ++ (++ = a single % value ≧ 40%)
